Assay results published in patent US12428447B2, “Peptide-based non-proteinaceous cargo delivery” (priority 2019, dated 2025).
Bridges are numbered along the chain shown (N, C = ends). Where no end group is shown, it is not given here. [ ]: non-standard residue; d: D form.

Key:
[1] = system: HedgeHog signalling pathway; assay: Hedgehog pathway inhibitor delivery to Gli-luciferase reporter NIH3T3 cells (luminescence); type: cell-based, Mouse; settings: for Mean luminescence intensity: inhibitor 100 μM, 90 seconds, mShh-stimulated reporter cells; for cellular luminescence intensity in the presence of FSD250D as compared to in the absence of FSD250D: +mShh, inhibitor transduced by FSD250D
Method: Stock solutions of cargoes were prepared as follows: Gant61 stock (20 mM in DMSO); HPI4 stock (40 mM in DMSO); Itraconazole stock (4.8 mM (4 mg/mL) in DMSO); Arsenic trioxide (ATO) stock (40 mM in H2O). Peptide shuttle agent (5 μM) and Hedgehog pathway inhibitor (100 μM) were mixed and volume was completed to 50 μL with PBS.
Hedgehog signaling pathway Gli Reporter NIH 3T3 cells were cultured in DMEM containing 10% calf serum. Cells were trypsinized, centrifuged and resuspended at 10 million cells/mL in PBS. 50 μL of cells (500 000 cells/well) were distributed in a round bottom non-treated 96-well plate. Resuspended cells were mixed with a delivery mix containing the peptide shuttle agent (5 μM) and Hedgehog pathway inhibitor (100 μM). Cells were incubated 90 seconds with the delivery mix at room temperature, 200 μL of DMEM containing 10% calf serum (200 μL) was added in each well, and cells were centrifuged (400 g, 4 min.) and washed with 200 μL of PBS. Cells were then resuspended in 200 μL of DMEM and then transferred to a well of a 6-well plate containing 1 mL of DMEM containing 10% calf serum and incubated at 37° C. for 2 hours. The media was gently removed and 1 ml of either control media (Opti-MEM™) or activating media (Opti-MEM with 5 μg/mL mShh) was added to each well. Cells were incubated at 37° C. for 24-30 hours.
For analyses, cells were trypsinized and resuspended in each well with 200 μL of Opti-MEM™, and then split equally to two wells of a round bottom 96-well plate. Viability was assessed using flow cytometry analysis and ONE-Step Luciferase assay was used to measure luminescence following manufacturer's instructions.
Briefly, the NIH3T3 Gli-luciferase reporter cell line is designed to monitor the activity of the HedgeHog signaling pathway and contains the firefly luciferase gene under the control of Gli responsive elements stably integrated into NIH3T3 cells. As shown in FIG. 3 and Table 1, exposure of the NIH3T3 Gli-luciferase reporter cells to recombinant mouse Sonic HedgeHog protein as a positive control (“Ctrl+mShh”) results in an increase in luminescence intensity that is not observed in the negative control cells which were not exposed to mShh (“Ctrl−mShh”).

HedgeHog pathway = assay: Hedgehog pathway inhibitor transduction in vivo, depilated mouse hair regrowth; parameters: species or system C57BL6 mice; settings: 100 μM inhibitor, topical on depilated skin, in the presence of FSD250D vs in its absence, 10 days post-treatment
HeLa cells = assay: Propidium iodide (PI) transduction in HeLa cells, flow cytometry; type: cell-based, Human; settings: for delivery / transduction of PI: shuttle or control peptide 10 μM, PI 10 μg/mL, 1 minute, 2 hours after delivery
Method: HeLa cells were plated (20 000 cells/well) in a 96 well-dish the day prior the experiment. Each delivery mix comprising a synthetic peptide shuttle agent (10 μM) and the propidium iodide (PI) (10 μg/mL) or the GFP-NLS (10 μM) were prepared and completed to 50 μL with phosphate-buffered saline (PBS). Cells were washed once with PBS and the Shuttle/PI or Shuttle/GFP-NLS added on cells for one minute. Then 100 μL DMEM containing 10% FBS was added to the mix and removed. Cells were washed once with PBS and incubated in DMEM containing 10% FBS. Cells were analyzed after 2-hour incubation by flow cytometry. For the condition “FS then PI”, only the synthetic peptide shuttle agent (10 μM) was added on HeLa cells for 1 minute and one hour later PI (10 μg/mL) was added for one minute following the same washing step. Cells were analyzed one hour after PI or GFP-NLS treatment.
HeLa cells were cultured as described in Example 1.3 and subjected to the PI transduction protocol as described in Example 1.4, with the proteinaceous cargo GFP-NLS being transduced separately as a control in some experiments. Results were acquired by flow cytometry two hours after delivery and expressed as percentages of fluorescent cells (% PI+ cells or % GFP+ cells), as shown in FIGS. 1A-1D and as summarized in the table shown in FIG. 2.
To evaluate the suitability of PI as a “surrogate” cargo for novel shuttle agents, a proprietary library of over 300 candidate peptide shuttle agents was screened in parallel for both PI and GFP-NLS transduction activity in HeLa cells using flow cytometry as generally described in Example 1.4. Aside from the concentrations of the cargoes (i.e., 10 μg/mL for PI vs 10 μM for GFP-NLS), the transduction protocols were otherwise the same.
Due to the large number of peptides screened, negative controls were performed in parallel for each experimental batch and included a “no treatment” (NT) control in which the cells were not exposed to shuttle peptide or cargo, as well as a “cargo alone” control in which cells were exposed to the cargo in the absence of shuttle agent. Results are shown in FIGS. 6 and 7, in which “transduction efficiency” refers to the percentage of all viable cells that are positive for the cargo (PI or GFP-NLS). “Mean Delivery score” provides a further indication of the total amount of cargo that was delivered per cell, amongst all cargo-positive cells. Mean PI or GFP-NLS delivery score was calculated by multiplying the mean fluorescence intensity (of at least duplicate samples) measured for the viable PI+ or GFP+ cells by the mean percentage of viable PI+ or GFP+ cells, divided by 100,000 for GFP delivery or by 10,000 for PI delivery. […]

HEK293 cells = assay: GFP-NLS co-transduction in HEK293 cells, microscopy; type: cell-based, Human; settings: 5 μM FSD194+15 μM GFP-NLS, with or without QX-314
Method: (§1) Delivery. Cells were seeded 24 hours prior to the experiment in 24-well plate. Cells were washed twice with PBS. A solution containing 1 mM of QX-314, 5 μM of FSD194 and 15 μM of GFP-NLS protein was applied to cells for 90 seconds and removed by aspiration. Control was performed using 5 μM of FSD194 or of 2.5 mM QX-314, in presence of GFP-NLS. Cells were washed with 800 μL of DMEM containing 10% FBS and transferred in the recording solution to perform the electrophysiology. GFP-positive cells were determined by microscopy and then selected for patch-clamp analysis.

sodium channel Nav1.7 = molecular target: T1, sodium channel Nav1.7 (Homo sapiens, UniProt Q15858); assay: QX-314 delivery, whole-cell patch-clamp of HEK293 cells stably expressing Nav1.7; type: cell-based
T1 construct: expressed in transfected cells
T1 sequence (Q15858 whole entry): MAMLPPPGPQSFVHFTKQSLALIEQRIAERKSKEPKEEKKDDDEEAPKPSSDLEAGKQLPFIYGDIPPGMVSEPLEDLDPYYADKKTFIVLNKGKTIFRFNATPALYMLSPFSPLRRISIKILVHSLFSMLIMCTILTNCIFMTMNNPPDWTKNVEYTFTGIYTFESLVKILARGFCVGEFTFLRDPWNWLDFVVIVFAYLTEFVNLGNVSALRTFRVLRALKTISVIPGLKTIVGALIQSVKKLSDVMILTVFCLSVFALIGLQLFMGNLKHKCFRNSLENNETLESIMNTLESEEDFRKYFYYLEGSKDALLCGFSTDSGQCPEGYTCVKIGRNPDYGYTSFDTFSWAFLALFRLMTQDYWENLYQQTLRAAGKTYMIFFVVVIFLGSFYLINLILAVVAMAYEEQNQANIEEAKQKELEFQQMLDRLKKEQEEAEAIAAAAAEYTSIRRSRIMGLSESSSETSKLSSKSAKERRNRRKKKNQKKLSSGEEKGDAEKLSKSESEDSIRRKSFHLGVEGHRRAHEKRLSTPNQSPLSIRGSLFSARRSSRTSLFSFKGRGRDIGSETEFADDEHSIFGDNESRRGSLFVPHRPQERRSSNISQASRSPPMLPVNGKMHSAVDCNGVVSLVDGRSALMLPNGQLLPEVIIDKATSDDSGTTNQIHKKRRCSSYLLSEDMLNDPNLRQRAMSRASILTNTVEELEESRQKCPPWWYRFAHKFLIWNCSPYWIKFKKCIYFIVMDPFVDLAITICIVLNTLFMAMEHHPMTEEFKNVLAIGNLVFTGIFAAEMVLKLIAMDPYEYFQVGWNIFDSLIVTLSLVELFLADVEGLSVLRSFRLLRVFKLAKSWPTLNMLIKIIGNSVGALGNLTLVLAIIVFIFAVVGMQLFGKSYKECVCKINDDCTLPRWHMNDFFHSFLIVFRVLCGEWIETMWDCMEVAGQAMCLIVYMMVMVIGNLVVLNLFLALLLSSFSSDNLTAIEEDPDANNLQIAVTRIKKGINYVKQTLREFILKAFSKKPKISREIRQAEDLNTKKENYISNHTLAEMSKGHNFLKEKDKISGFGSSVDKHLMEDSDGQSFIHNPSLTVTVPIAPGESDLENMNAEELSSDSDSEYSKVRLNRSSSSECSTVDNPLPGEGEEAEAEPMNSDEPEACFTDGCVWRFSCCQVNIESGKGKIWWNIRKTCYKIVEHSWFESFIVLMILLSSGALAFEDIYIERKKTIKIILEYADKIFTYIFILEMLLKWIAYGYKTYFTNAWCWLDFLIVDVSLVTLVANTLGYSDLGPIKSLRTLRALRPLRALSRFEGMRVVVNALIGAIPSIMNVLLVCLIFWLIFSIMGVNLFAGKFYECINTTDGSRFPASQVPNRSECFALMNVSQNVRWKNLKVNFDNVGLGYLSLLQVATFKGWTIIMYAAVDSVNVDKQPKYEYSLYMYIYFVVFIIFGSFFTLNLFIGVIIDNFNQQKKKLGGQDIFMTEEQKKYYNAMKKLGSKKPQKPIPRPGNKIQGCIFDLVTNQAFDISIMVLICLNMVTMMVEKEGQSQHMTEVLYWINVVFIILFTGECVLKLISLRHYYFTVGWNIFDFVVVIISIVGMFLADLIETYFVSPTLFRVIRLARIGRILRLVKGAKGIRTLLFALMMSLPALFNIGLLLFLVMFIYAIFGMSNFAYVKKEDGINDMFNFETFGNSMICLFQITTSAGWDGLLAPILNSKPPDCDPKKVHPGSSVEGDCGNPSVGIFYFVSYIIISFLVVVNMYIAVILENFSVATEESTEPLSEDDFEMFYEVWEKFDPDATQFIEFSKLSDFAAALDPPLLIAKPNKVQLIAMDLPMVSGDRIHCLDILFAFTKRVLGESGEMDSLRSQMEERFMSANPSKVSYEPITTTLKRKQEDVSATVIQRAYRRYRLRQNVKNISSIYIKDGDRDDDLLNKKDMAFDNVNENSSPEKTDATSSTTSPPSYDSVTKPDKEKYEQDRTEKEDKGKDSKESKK
Method: Cell culture. HEK293 cells stably expressing Nav1.7 were grown in Dulbecco's minimal essential medium (DMEM, Gibco BRL Life Technologies) supplemented with fetal bovine serum (FBS, 10%), L-glutamine (2 mM), penicillin (100 U/mL), streptomycin ([…]). The cells were incubated at 37° C. in a 5% CO2 humidified atmosphere.
as §1
Electrophysiology. Frequency protocol with QX-314 was recorded within 30 s after the whole-cell configuration was formed. Frequency protocol consists of a pulse of 10 ms at −20 mV from a holding potential of −140 mV at 10 Hz. Whole-cell Na+ currents in HEK293 cells were recorded at room temperature using an Axopatch 200B with the whole-cell configuration of the patch-clamp technique (Molecular Devices). pClamp v10.0 was used for the pulse stimulations and recordings (Molecular Devices). Currents were filtered at 5 kHz, digitized at 100 kHz using a Digidata 1550 AD converter (Molecular devices), and stored on a computer for subsequent analyses. Series resistance was compensated by 70-80%. When needed, linear leak current artifacts were removed using on-line leak subtraction. Fire-polished low-resistance electrodes (2MS2) were pulled from 8161 glass (Corning).
Recording Solutions. Bath solution: 35 mM NaCl, 115 mM NMDG, 2 mM KCl, 1.5 mM CaCl2, 1.0 mM MgCl2, 10 mM glucose, 10 mM HEPES. The pH was adjusted to pH 7.3 with 1 M NaOH. Pipette solution: 35 mM NaCl, 105 mM CsF, 10 mM EGTA, and 10 mM HEPES. The pH was adjusted to pH 7.4 with 1 M CsOH.

With Arsenic trioxide [ATO] the Mean luminescence intensity ([1]; +FSD250D (5 μM)) was 4686, the “cellular luminescence intensity in the presence of FSD250D as compared to in the absence of FSD250D” value [1] was “significantly reduced cellular luminescence intensity” and the Mean luminescence intensity ([1]; −FSD250D) was 5967.

`CN(C)c1ccccc1CN1CCCN(Cc2ccccc2N(C)C)C1c1ccncc1` [Gant61] was tested, and the hair regrowth (HedgeHog pathway) was “delayed hair regrowth”, the Mean luminescence intensity ([1]; +FSD250D (5 μM)) was 4216 and the “cellular luminescence intensity in the presence of FSD250D as compared to in the absence of FSD250D” value [1] was “significantly reduced cellular luminescence intensity”. It also gave a Mean luminescence intensity ([1]; −FSD250D) of 6770.

For “FSD268: rationally-designed synthetic peptide shuttle agent (KWKLLKLWSRLLKLWGGSGGGSQARAQARQAR; FSD268)”, the “delivery / transduction of PI” value (HeLa cells) was “increased the delivery of PI”.

`N#C/C(C(=O)c1ccc(Cl)cc1Cl)=C1\NC(=O)c2ccccc2N1` [HPI-4] was tested, and the Mean luminescence intensity ([1]; +FSD250D (5 μM)) was 1993, the “cellular luminescence intensity in the presence of FSD250D as compared to in the absence of FSD250D” value [1] was “significantly reduced cellular luminescence intensity” and the Mean luminescence intensity ([1]; −FSD250D) was 6370.

For “FSD268 Cyclic Amide: cyclic peptide possessing an amide bond between its C and N termini (KWKLLKLWSRLLKLWGGSGGGSQARAQARQAR; head-to-tail cyclic amide; FSD268 Cyclic Amide; (1)..(32) Cyclic peptide covalent link between K1 and R32)”, the “delivery / transduction of PI” value (HeLa cells) was “increased the delivery of PI”.

For “FSD194: rationally-designed synthetic peptide shuttle agent (KWKLLKLWSRLLKLWGGSGGGSRRLKAKRAKA; FSD194)”, the GFP-NLS-positive cells (HEK293 cells) was “GFP-NLS-positive cells were identified” and the “evoked whole-cell Na+ current amplitude” value (sodium channel Nav1.7; 15 μM GFP-NLS+5 μM FSD194, without QX-314) was “current amplitude reduction was not observed”.

“FSD268 Cyclic Disulfide: cyclic peptide with a disulfide bridge between two flanking cysteines added in N and C terminal positions (CKWKLLKLWSRLLKLWGGSGGGSQARAQARQARC; disulfide 1-34)” was tested, and the “delivery / transduction of PI” value (HeLa cells) was “increased the delivery of PI”.

For “FSD174 Scramble: negative control peptide, same amino acid composition as FSD174, order changed (LGRSGRIKIGGWSALASRARQARGLKIWTQGRL; FSD174 Scramble)”, the “PI transduction efficiency relative to "cargo alone" negative control” value (HeLa cells; negative control peptide, data not shown) was “lower transduction efficiencies for PI”.

“FSD250D: same amino acid sequence as FSD250, except that all the amino acids are D-amino acids ([dK][dW][dK][dL][dL][dK][dL][dW][dS][dR][dL][dL][dK][dL][dW]GG[dS]GGG[dS][dA][dR][dA][dA][dR][dQ][dA][dR])” was tested, and the “effect of shuttle agent alone on luminescence intensity following mShh stimulation” value ([1]; FSD250D together with mShh, no inhibitor, data not shown) was “had no effect on cellular luminescence intensity”.

With `CC[N+](CC)(CC)CC(=O)Nc1c(C)cccc1C.[Br-]` [QX-314, Lidocaine N-ethyl bromide] the “evoked whole-cell Na+ current amplitude” value (sodium channel Nav1.7; 1 mM QX-314+15 μM GFP-NLS+5 μM FSD194, 90 seconds, 10 ms pulse at 10 Hz) was “Reduction of the current amplitude” and the “evoked whole-cell Na+ current amplitude” value (sodium channel Nav1.7; 2.5 mM QX-314+15 μM GFP-NLS, absence of FSD194) was “current amplitude reduction was not observed”.

`CCC(C)n1ncn(-c2ccc(N3CCN(c4ccc(OCC5COC(Cn6cncn6)(c6ccc(Cl)cc6Cl)O5)cc4)CC3)cc2)c1=O` (stereo not drawn) [Itraconazole] showed a Mean luminescence intensity ([1]; +FSD250D (5 μM)) of 1519 and a Mean luminescence intensity ([1]; −FSD250D) of 5612.
